Consider 61 molecules from a melting point compilation (Tetko et al.; mined from patent text by program, amines drawn as free bases though some values may be those of a salt).

The molecule `CN(CCc1ccccc1)c1nc(=O)c2cccnc2s1` yielded a melting point of 115 to 116 °C.
The figure for `CSc1ccc(Oc2ccc([N+](=O)[O-])cc2[N+](=O)[O-])cc1` is 119 to 120 °C.
Molecule `CC1CC(=O)NN=C1c1ccc(NCCNC(N)=S)c([N+](=O)[O-])c1` (stereo unspecified) showed a melting point of 231 to 233 °C.
Next, `CCCCc1c(C)c2ccc(OCCCN3CCN(Cc4ccc(Cl)cc4)CC3)cc2[nH]c1=O`: 148 to 149 °C; `O=C(Nc1ccc(Br)cn1)C(CC1CCCC1)c1ccc(Cl)c([N+](=O)[O-])c1` (stereo unspecified): 128 to 130 °C; `CC(=O)Nc1nccc(Oc2ccc3c(C(=O)Nc4cccc(C(F)(F)F)c4)cccc3c2)n1`: 216 to 217 °C.
For `CCCn1nc(C2CC2)c(C(=O)OCC)c1Cc1ccc(-c2ccccc2S(N)(=O)=O)cc1`, the melting point lay within 70 to 77 °C.
Next, `N#Cc1cnc2ccc(/C=C/CCN3CCOCC3)cc2c1Nc1ccc(Cl)cc1Cl`: 115 to 116 °C; `S=C=Nc1ccccc1N1CCCCC1`: 143 to 145 °C.
Next, `Nc1c(F)c(N2CCC(c3cccnc3)C2)c(F)c2c1c(=O)c(C(=O)O)cn2C1CC1` (stereo unspecified): 250 to 252 °C; `O=C(Nc1ccc(C(F)(F)F)cc1)NC1CCN(C(=O)Cc2c[nH]cn2)CC1`: 121 to 124 °C; `CCCCc1nn2cc(C(=O)OCC)ccc2c1C(=O)c1ccc(Br)cc1`: less than 50 °C.
Next, `O=C1c2ccccc2C(=O)N1[C@H]1C=C[C@@H](O)CC1` (racemic): 126 to 129 °C; `Nc1ccc(Cl)cc1C(=O)c1cccc(Cl)c1`: 118 to 119 °C; `COc1ccccc1-n1c(=O)[nH]c2c(C(N)=O)nc(Nc3ccc(O)cc3)nc21`: 223 to 224 °C.
For `O=C(NC(=O)c1c(F)cccc1F)Nc1cc(C(F)(F)F)ccn1`, the melting point lay in the range of 167 to 169 °C.
The figure for `O=C1CCc2c(-c3ccncc3)sc(-c3ccccc3F)c21` is 133 to 135 °C; for `CCCCCCCCCCCCNC(=O)N1c2ccccc2C(C)CC1(C)C` (stereo unspecified) it is 48 to 50 °C.
With `O=C(CCc1ccccc1)OCCOC(=O)NC1(C(=O)O)CC1`, the melting point lay in the range of 133 to 134 °C.
The figure for `N#Cc1ccc(N2CCN(Cc3cn4cc(Cl)ccc4n3)CC2)c(F)c1` is 132 to 133 °C; for `CCCCCC1COc2cc(CCC3=Cc4cc(F)cc(F)c4OC3)c(F)cc2C1` (stereo unspecified) it is 84 °C.
As for `O=C1C(c2ccc(O)cc2)=C(c2ccccc2)c2c(O)cc(O)cc21`, the melting point was in the range of 223 to 225 °C.
Next, `COc1ccc(-c2nc(-c3cccn3CC(=O)OCC(C)C)sc2-c2ccc(OC)cc2)cc1`: 106 to 108 °C; `COCCCN1C[C@H](O)c2cc(S(N)(=O)=O)sc2S1(=O)=O`: 109 to 111 °C; `CCOC(=O)CNC(=S)NC(=Nc1ccccc1)c1ccccc1`: 151 to 152 °C.
The figure for `O=C(OC(=O)c1ccc([N+](=O)[O-])cc1S(=O)(=O)O)c1ccc([N+](=O)[O-])cc1S(=O)(=O)O` is 110 to 116 °C; for `Cc1ccc(CCC(C)NCC(O)c2cc3ccccc3o2)cc1` (stereo unspecified) it is 83 to 84 °C.
Consider `CCCCCCCCCCCCn1nnnc1CCC(=O)OC`, for which the melting point lay within 43 to 45 °C.
Molecule `CCCC(CCC)n1c(CC)nc2c1C(=O)N(C)C(C)N2c1ccc(Cl)cc1Cl` (stereo unspecified) gave a melting point of 144 to 146 °C.
The molecule `CS(=O)(=O)c1ccc(-c2[nH]c(SCc3ccc4ccccc4n3)nc2-c2ccc(F)cc2)cc1` showed a melting point of 179 to 182 °C.
For the molecule `Cc1nc(-n2ccc(OCc3ccc(F)cc3)cc2=O)sc1C(=O)O`, the melting point is more than 300 °C.
Consider `Cn1c(=O)c2c(I)cccc2n2cnc(-c3noc(C4CC4)n3)c12`, for which the melting point lay within 217 to 220 °C.
In turn, `CCSc1cc2c(c(C(=O)O)c1)OCCO2` returned a melting point of 153 to 154 °C.
Turning to `O=C(NC1CCc2n[nH]cc2C1)[C@@H]1CCCN1C(=O)[C@@H](CC1CCCCC1)NS(=O)(=O)Cc1ccccc1` (stereo partly specified), the melting point was in the range of 106 to 109 °C.
Take `CC(C)COC(=O)C(C#N)=CNCCc1ccco1`: the melting point was in the range of 42 to 44 °C.
The figure for `CCOC(=O)C1=C[C@H](c2ccc(C)cc2)[C@H](CO[Si](C)(C)C(C)(C)C)C(=O)O1` is 60 to 61 °C; for `COc1ccc2c(c1N)CN(S(C)(=O)=O)CC(=O)N2` it is 232 to 233 °C.
The figure for `O=C(COc1cc(-c2ccccn2)nc2ccccc12)N1CCOCC1` is 185 °C.
With `CC(C)(C)c1cc(-c2nn(C(=O)c3ccc(Cl)cc3)c3ncccc23)cc(C(C)(C)C)c1O`, the melting point lay in the range of 256 to 258 °C.
As for `CC1=C(CC(=O)N(C)O)c2cc(F)ccc2/C1=C\c1ccc(S(C)=O)cc1` (stereo unspecified), the melting point was 156 to 160 °C.
The figure for `CCOC(=O)c1cc2cc(NC(C)=O)ccc2n1C(=O)OC(C)(C)C` is 122 to 123 °C; for `COc1ccc2c(Cc3ncc(Cl)cc3Cl)nncc2c1C=Cc1ccccc1` it is 180 to 182 °C.
Consider `CCc1ccc2c(c1)C=Cc1cc(C)ccc1C2c1cn(-c2ccnc(N3CC(C(=O)Nc4nnn[nH]4)C3)n2)c(=O)[nH]c1=O` (stereo unspecified), for which the melting point came to 252 °C.
Next, `CNC(Cc1ccc(Cl)cc1[N+](=O)[O-])c1ccsc1C` (stereo unspecified): 44 to 46 °C.
Next, `Cc1cccc(Nc2ncnc3ccc(OCCBr)cc23)c1`: 129 to 135 °C.
The figure for `COc1cc(-c2nc(NC(C)(C)C)c3c(C)c(C#N)sc3n2)cc(OC)c1OC` is 195 to 197 °C.
`O=C(Nc1ccccc1)Nc1cc(Cl)ccc1C(=O)O` registered a melting point of 186 to 188 °C.
The figure for `Cc1cc(F)ccc1C(=O)CCCN1CCC2(CC1)C(=O)NCN2c1ccccc1` is 180 to 182 °C; for `Cc1ccc(C(=O)OCCOc2ccc(OC(F)(F)F)cc2)cc1` it is 76 to 77.5 °C.
For `COC(=O)c1cscc1NC(=O)COc1ccc(I)cc1`, the melting point lay within 135 to 137 °C.
The figure for `Cc1ccc(C(=O)c2c(C)cc(C)cc2O)cc1` is 102 to 105 °C; for `CCOC(=O)c1c(Sc2ccccc2)cc(C(F)(F)F)nc1C(F)(F)F` it is 58 to 61 °C; for `Cc1cccc2ncc(C(=O)NC34CC5CC(CC(C5)C3)C4)c(=O)n12` it is 190 to 193 °C.
The figure for `CC(C)(NS(=O)(=O)c1ccc2c(Cl)cnc(Cl)c2c1)C(N)=O` is 220 to 222 °C; for `O=C1c2cccc(NC(=S)Nc3ncccn3)c2C2CCCCN12` (stereo unspecified) it is 212 °C; for `N#Cc1cc(C(F)(F)F)[nH]c1-c1ccc(C=O)o1` it is 224 to 225 °C.
The figure for `COC12c3ccc(Cl)cc3CC1SC(=CN)N2C` (stereo unspecified) is 65 to 70 °C; for `N#CCCN1C(=O)C2(COc3cc4c(cc32)OCO4)c2ccccc21` (stereo unspecified) it is 200 to 202 °C.
`OC1N=C(c2ccccc2F)c2cc(Cl)ccc2-c2ncncc21` (stereo unspecified) returned a melting point of 186 to 188 °C.
Next, `COc1cc(Nc2ccc(CCCc3ccc(Cl)c(Cl)c3)cc2)c(C(=O)O)cc1[N+](=O)[O-]`: 200 to 201 °C; `CC(C)(C)P1(=O)c2ccccc2CN1c1ccccc1` (stereo unspecified): 171 to 172 °C.

A word on the melting point: it is the temperature of the solid-liquid transition.
